Our source for the EC50 values is patent US9505769B2 (ASCENEURON SA, priority 2013, dated 2016).

Where a name gives a salt, the structure may show the parent alone. Read-outs that look alike come from different tables or passages of the source.

This assay has as its target T1, human muscarinic acetylcholine M1 receptor (Homo sapiens, UniProt P11229).
T1 construct: expressed in transfected cells; host or cells: CHO-K1
T1 sequence (P11229 1-460): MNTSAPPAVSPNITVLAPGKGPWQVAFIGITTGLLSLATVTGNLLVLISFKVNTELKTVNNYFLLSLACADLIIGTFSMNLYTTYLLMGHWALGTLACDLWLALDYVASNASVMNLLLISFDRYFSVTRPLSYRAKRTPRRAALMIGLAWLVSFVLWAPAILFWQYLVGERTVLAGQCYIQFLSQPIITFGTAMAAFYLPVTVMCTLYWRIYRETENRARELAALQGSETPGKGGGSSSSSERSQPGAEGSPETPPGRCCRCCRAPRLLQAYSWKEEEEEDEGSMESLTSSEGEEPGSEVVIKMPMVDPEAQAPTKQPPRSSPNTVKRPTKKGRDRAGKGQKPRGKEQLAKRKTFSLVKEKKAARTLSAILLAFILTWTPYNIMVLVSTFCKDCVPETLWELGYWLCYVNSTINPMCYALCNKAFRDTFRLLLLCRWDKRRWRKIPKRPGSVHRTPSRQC
Nature of the assay: M1 PAM Assay (IP-One HTRF, IP1 accumulation in M1-CHO cells). It counts as cell-based. As to the method: Then diluted compounds (0.6% DMSO final concentration) are added together with EC20 of acetylcholine and incubated with the cells for 30 min at 37° C., 5% CO2.
CHO-K1 cells stably transfected with human muscarinic acetylcholine M1 receptor are cultured in Ham's F12 medium containing 10% heat inactivated fetal calf serum, 2 mM L-glutamine and Penicillin-Streptomycin grown in a humidified atmosphere at 5% CO2/95% air at 37° C.
(In TR-FRET formats the signal depends on donor and acceptor labels being close together.)

[1] abbreviates: CHO-K1 cells stably transfected with human M1 receptor, compounds added with EC20 of acetylcholine (25 nM), 30 min, intracellular IP1 by IP-One HTRF, read-out: M1 PAM EC50.

One may read the EC50 as the concentration giving half of the maximal effect. As for `Cc1nc2c3c(nn2c(C)c1Cl)CN(C(=O)c1ccncc1OC1CCN(C)CC1)C3` [Example 3, (3-chloro-2,4-dimethyl-7H-pyrrolo[3′,4′:3,4]pyrazolo[1,5-a]pyrimidin-8(9H)-yl)(3-((1-methylpiperidin-4-yl)oxy)pyridin-4-yl)methanone], the EC50 under setting [1] was 1 to 3 µM.
Consider `Cc1nc2c3c(nn2c(C)c1Cl)CN(C(=O)c1ccccc1C(C)N1CCNCC1)C3` (stereo not drawn) [Example 6], for which the EC50 under setting [1] is 1 to 3 µM.
As for `Cc1nc2c3c(nn2c(C)c1Cl)CN(C(=O)c1ccccc1C(C)N1CCN(C)CC1)C3` (stereo not drawn) [Example 7, (3-chloro-2,4-dimethyl-7H-pyrrolo[3′,4′:3,4]pyrazolo[1,5-a]pyrimidin-8(9H)-yl)(2-(1-(4-methylpiperazin-1-yl)ethyl)phenyl)methanone], under setting [1], the EC50 was 1 to 3 µM.
For `CCc1nc2c3c(nn2c(C)c1Cl)CN(C(=O)c1ccccc1O[C@@H]1CCC[C@H]1O)C3` [Example 9, (anti)-(6-Chloro-5-ethyl-7-methyl-1H,3H-2,4,7a,8-tetraaza-cyclopenta[a]inden-2-yl)-[2-(2-hydroxy-cyclopentyloxy)-phenyl]-methanone or (anti)-(6-Chloro-5-methyl-7-ethyl-1H,3H-2,4,7a,8-tetraaza-cyclopenta[a]inden-2-yl)-[2-(2-hydroxy-cyclopentyloxy)-phenyl]-methanone], under setting [1], the EC50 was in the range of 1 to 3 µM.
The same measure, in the same setting: the figure for `Cc1nc2c3c(nn2c(C)c1Cl)CN(C(=O)c1ccc(F)cc1O[C@@H]1CCNC1=O)C3` [Example 11, (R)-3-(2-(3-chloro-2,4-dimethyl-8,9-dihydro-7H-pyrrolo[3′,4′:3,4]pyrazolo[1,5-a]pyrimidine-8-carbonyl)-5-fluorophenoxy)pyrrolidin-2-one] is 0.2 to 1 µM; for `CN1CCC(Oc2cc(F)ccc2C(=O)N2Cc3nn4cc(Cl)cnc4c3C2)CC1` [Example 12, (3-chloro-7H-pyrrolo[3′,4′:3,4]pyrazolo[1,5-a]pyrimidin-8(9H)-yl)(4-fluoro-2-((1-methylpiperidin-4-yl)oxy)phenyl)methanone] it is 0.2 to 1 µM; for `Cc1nc2c3c(nn2c(C)c1Cl)CN(C(=O)c1ccc(C#N)cc1OCCN(C)C)C3` [Example 14, 4-(3-chloro-2,4-dimethyl-8,9-dihydro-7H -pyrrolo[3′,4′:3,4]pyrazolo[1,5-a]pyrimidine-8-carbonyl)-3-(2-(dimethylamino)ethoxy)benzonitrile] it is 0.2 to 1 µM.
Regarding `Cc1nc2c3c(nn2c(C)c1Cl)CN(C(=O)c1ccc(F)cc1OCCN1CCOCC1)C3` [Example 15, (3-Chloro-2,4-dimethyl-7H-pyrrolo[3′,4′:3,4]pyrazolo[1,5-a]pyrimidin-8(9H)-yl)(4-fluoro-2-(2-morpholinoethoxy)phenyl)methanone], the EC50 under setting [1] fell in the range of 1 to 3 µM.
For `Cc1nc2c3c(nn2c(C)c1Cl)CN(C(=O)c1ccc(F)cc1OCCN1CCCC1)C3` [Example 16, (3-Chloro-2,4-dimethyl-7H-pyrrolo[3′,4′:3,4]pyrazolo[1,5-a]pyrimidin-8(9H)-yl)(4-fluoro-2-(2-pyrrolidinoethoxy)phenyl)methanone], the EC50 under setting [1] was < 0.2 µM.
On to `Cc1nc2c3c(nn2c(C)c1Cl)CN(C(=O)c1ccc(F)cc1OCc1cccnc1)C3` [Example 19, (6-Chloro-5,7-dimethyl-1H,3H-2,4,7a,8-tetraaza-cyclopenta[a]inden-2-yl)-[4-fluoro-2-(pyridin-3-ylmethoxy)-phenyl]-methanone], for which the EC50 under setting [1] is 1 to 3 µM.
`Cc1nc2c3c(nn2c(C)c1Cl)CN(C(=O)c1ccc(F)cc1OCCn1cncn1)C3` [Example 20]: the EC50 under setting [1] lay within 0.2 to 1 µM.
Regarding `Cc1nc2c3c(nn2c(C)c1Cl)C(CO)N(C(=O)c1ccccc1OC1CCN(C)CC1)C3` (stereo not drawn) [Example 23, (6-Chloro-1-hydroxymethyl-5,7-dimethyl-1H,3H-2,4,7a,8-tetraaza-cyclopenta[a]inden-2yl)-[2-(1-methyl-piperidin-4-yloxy)-phenyl]-methanone], the EC50 under setting [1] lay within 1 to 3 µM.
As for `CCOC(=O)N1CCC(Oc2cc(F)ccc2C(=O)N2Cc3nn4c(C)c(Cl)c(C)nc4c3C2)CC1` [Example 28, 4-[2-(6-Chloro-5,7-dimethyl-1H,3H-2,4,7a,8-tetraaza-cyclopenta[a]indene-2-carbonynl)-5-fluoro-phenoxy]-piperidine-1-carboxylic acid ethyl ester], the EC50 under setting [1] was in the range of 1 to 3 µM.
On to `Cc1nc2c3c(nn2c(C)c1Cl)CN(C(=O)c1ccc(F)cc1OC1CCN(C(CO)CO)CC1)C3` [Example 29, (6-Chloro-5,7-dimethyl-1H,3H-2,4,7a8-tetraaza-cyclopenta[a]inden-2-y)-{4-fluoro-2-[1-(2-hydroxy-1-hydroxymethyl-ethyl)-piperidin-4-yloxy]-phenyl}-methanone], for which the EC50 under setting [1] is < 0.2 µM.
Consider `Cc1nc2c3c(nn2c(C)c1Cl)CN(C(=O)c1ccc(F)cc1OC1CN(CCO)C1)C3` [Example 30, (3-chloro-2,4-dimethyl-7H-pyrrolo[3′,4′:3,4]pyrazolo[1,5-a]pyrimidin-8(9H)-yl)(4-fluoro-2-((1-(2-hydroxyethyl)azetidin-3-yl)oxy)phenyl)methanone], for which the concentration for a half-maximal effect (EC50) under setting [1] lay within 0.2 to 1 µM.
Turning to `Cc1nc2c3c(nn2c(C)c1Cl)CN(C(=O)c1ccc(Br)cc1OCCN(C)C)C3` [Example 31, (4-bromo-2-(2-(dimethylamino)ethoxy)phenyl)(3-chloro-2,4-dimethyl-7H-pyrrolo[3′,4′:3,4]pyrazolo[1,5-a]pyrimidin-8(9H)-yl)methanone], under setting [1], the EC50 lay within 0.2 to 1 µM.
On to `Cc1nc2c3c(nn2c(C)c1Cl)CN(C(=O)c1ccc(F)cc1OC1CCN(CCO)CC1)C3` [Example 32, (6-Chloro-5,7-dimethyl-1H,3H-2,4,7a,8-tetraaza-cyclopenta[a]inden-2-yl)-{4-fluoro-2-[1-(2-hydroxy-ethyl)-piperidin-4-yloxy]-phenyl}-methanone], for which the EC50 under setting [1] was < 0.2 µM.
Take `O=C(c1ccc(F)cc1OC1CCNCC1)N1Cc2nn3cc(Cl)cnc3c2C1` [Example 33, (3-chloro-7H-pyrrolo[3′,4′:3,4]pyrazolo[1,5-a]pyrimidin-8(9H)-yl)(4-fluoro-2-(piperidin-4-yloxy)phenyl)methanone hydrochloride]: the EC50 under setting [1] was 0.2 to 1 µM.
As to `O=C(c1ccc(F)cc1OC1CCN(CCF)CC1)N1Cc2nn3cc(Cl)cnc3c2C1` [Example 34], under setting [1], the EC50 is 0.2 to 1 µM.
Turning to `O=C(c1ccc(F)cc1OC1CCN(CCO)CC1)N1Cc2nn3cc(Cl)cnc3c2C1` [Example 35, (3-chloro-7H-pyrrolo[3′,4′:3,4]pyrazolo[1,5-a]pyrimidin-8(9H)-yl)(4-fluoro-2-((1-(2-hydroxyethyl)piperidin-4-yl)oxy)phenyl)methanone], under setting [1], the EC50 was in the range of 0.2 to 1 µM.
For the molecule `Cc1nc2c3c(nn2c(C)c1Cl)CN(C(=O)c1ccc(F)cc1O[C@H]1C[C@H]2CC[C@@H](C1)N2CCF)C3` [Example 36, (3-chloro-2,4-dimethyl-7H-pyrrolo[3′,4′:3,4]pyrazolo[1,5-a]pyrimidin-8(9H)-yl)(4-fluoro-2-{[(3-endo)-8-(2-fluoroethyl)-8-azabicyclo[3.2.1]oct-3-yl]oxy}phenyl)methanone], the EC50 was < 0.2 µM.
On the same count and under the same terms, in the case of `Cc1nc2c3c(nn2c(C)c1Cl)CN(C(=O)c1ccc(F)cc1O[C@H]1C[C@H]2CC[C@@H](C1)N2CCO)C3` [Example 37, (3-chloro-2,4-dimethyl-7H-pyrrolo[3′,4′:3,4]pyrazolo[1,5-a]pyrimidin-8(9H)-yl)(4-fluoro-2-{[(3-endo)-8-(2-hydroxyethyl)-8-azabicyclo[3.2.1]oct-3-yl]oxy}phenyl)methanone] it was < 0.2 µM.
For the molecule `Cc1nc2c3c(nn2c(C)c1Cl)CN(C(=O)c1ccc(F)cc1OCCn1ccnc1C)C3` [Example 40, (3-chloro-2,4-dimethyl-7H-pyrrolo[3′,4′:3,4]pyrazolo[1,5-a]pyrimidin-8(9H)-yl)(4-fluoro-2-(2-(2-methyl-1H-imidazol-1-yl)ethoxy)phenyl)methanone], the EC50 under setting [1] was in the range of 1 to 3 µM.
Consider `Cc1ccc(CCOc2cc(F)ccc2C(=O)N2Cc3nn4c(C)c(Cl)c(C)nc4c3C2)cn1` [Example 42, (3-chloro-2,4-dimethyl-7H-pyrrolo[3′,4′:3,4]pyrazolo[1,5-a]pyrimidin-8(9H)-yl)(4-fluoro-2-(2-(6-methylpyridin-3-yl)ethoxy)phenyl)methanone], for which the 50% effective concentration (EC50) under setting [1] is 0.2 to 1 µM.
With `Cc1nc2c3c(nn2c(C)c1Cl)CN(C(=O)c1ccc(F)cc1OCCc1cncc(F)c1)C3` [Example 43, (3-chloro-2,4-dimethyl-7H-pyrrolo[3′,4′:3,4]pyrazolo[1,5-a]pyrimidin-8(9H)-yl)(4-fluoro-2-(2-(5-fluoropyridin-3-yl)ethoxy)phenyl)methanone], under setting [1], the EC50 is < 0.2 µM.
Consider `Cc1nc2c3c(nn2c(C)c1Cl)CN(C(=O)c1ccc(F)cc1OC1CN(CCF)C1)C3` [Example 46, (3-chloro-2,4-dimethyl-7H-pyrrolo[3′,4′:3,4]pyrazolo[1,5-a]pyrimidin-8(9H)-yl)(4-fluoro-2-((1-(2-fluoroethyl)azetidin-3-yl)oxy)phenyl)methanone], for which the EC50 under setting [1] fell in the range of 1 to 3 µM.
Regarding `Cc1nc2c3c(nn2c(C)c1Cl)CN(C(=O)c1ccc(F)cc1OC1CCC(F)(F)CC1)C3` [Example 47, (3-chloro-2,4-dimethyl-7H-pyrrolo[3′,4′:3,4]pyrazolo[1,5-a]pyrimidin-8(9H)-yl)(2-((4,4-difluorocyclohexyl)oxy)-4-fluorophenyl)methanone], under setting [1], the EC50 was in the range of 1 to 3 µM.
